Reference: ChEMBL document CHEMBL1201862, “PubChem BioAssay data set” (2004)
The source made the active and inactive calls.

What was measured:
[1] = target: Ras and Rab interactor 1/Tyrosine-protein kinase ABL1 (Homo sapiens, UniProt P00519+Q13671); type: functional;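 note: biochemical TR-FRET dose-response test measuring inhibition of binding between Rin1 and Abl proteins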
Coagulation factor XII = target: T1, Coagulation factor XII (Homo sapiens, UniProt P00748); type: functional;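 note: activated factor XIIa alpha cleaving a fluorogenic AMC peptide substrate; inhibitor potency from loss of enzyme activity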
T1 sequence (P00748 whole entry): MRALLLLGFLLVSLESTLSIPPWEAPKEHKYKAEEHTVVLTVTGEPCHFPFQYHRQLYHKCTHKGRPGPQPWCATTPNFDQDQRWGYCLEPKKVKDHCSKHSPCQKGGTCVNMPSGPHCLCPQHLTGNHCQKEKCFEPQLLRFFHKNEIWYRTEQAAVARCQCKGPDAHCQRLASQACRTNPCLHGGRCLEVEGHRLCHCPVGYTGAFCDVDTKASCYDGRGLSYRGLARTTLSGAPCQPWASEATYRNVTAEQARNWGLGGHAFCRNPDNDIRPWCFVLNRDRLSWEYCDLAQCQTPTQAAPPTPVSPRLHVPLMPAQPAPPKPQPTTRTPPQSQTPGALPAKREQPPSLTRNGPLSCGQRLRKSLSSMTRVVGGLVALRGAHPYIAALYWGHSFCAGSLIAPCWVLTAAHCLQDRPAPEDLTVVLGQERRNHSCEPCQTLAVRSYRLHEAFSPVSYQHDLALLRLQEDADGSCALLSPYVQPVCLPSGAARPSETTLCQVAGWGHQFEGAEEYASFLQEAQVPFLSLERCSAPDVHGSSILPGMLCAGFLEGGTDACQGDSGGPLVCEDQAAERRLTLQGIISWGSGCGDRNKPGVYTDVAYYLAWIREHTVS

[2] = target: DNA dC->dU-editing enzyme APOBEC-3A (Homo sapiens, UniProt P31941); test: Dose Response confirmation of small molecule APOBEC3A DNA Deaminase Inhibitors via a fluorescence-based single-stranded DNA deaminase assay. [Related pubchem assays (depositor defined):AID493011, AID493024]; type: functional
[3] = target: DNA dC->dU-editing enzyme APOBEC-3G (Homo sapiens, UniProt Q9HC16); type: functional;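 note: Dose-response counterscreen measuring inhibition of APOBEC3G DNA deaminase activity, run while confirming APOBEC3A inhibitors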
[4] = viability of uninfected HEp-2 cells – cell-based, HTS, cytotoxicity control for RSV inhibitor project, dose response (AID 2410); type: functional; conditions: human respiratory syncytial virus
cells = type: functional
[5] = Vero E6 cell cytotoxicity, dose response, cytotoxicity control for non-replicating M. tuberculosis project, secondary assay (AID 492998); type: functional, VeroE6; conditions: Vero C1008
[6] = NIH3T3 cell viability loss – ATP luminescence, mouse fibroblasts, counter-screen, dose response (AID 2010); type: functional, cell-based;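 note: cells exposed to compound for about 90 hours before reading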
[7] = Trypanosoma cruzi growth suppression in host cells – NIH3T3 host cells, beta-gal luminescence, confirmation (AID 2044); type: functional, cell-based;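 note: intracellular parasites grown in NIH/3T3 mouse fibroblasts as host cells; luminescent beta-galactosidase reporter signal from transgenic T. cruzi replicating inside host cells; inhibitors lower the luminescence signal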
[8] = target: T2, Short transient receptor potential channel 4 (Mus musculus, UniProt Q9QUQ5); test: calcium entry via TRPC4 opening agents – cell-based, HEK293 TRPC4/mu-opioid, Fluo-4 calcium, dose response (AID 434937); type: functional
T2 sequence (Q9QUQ5 whole entry): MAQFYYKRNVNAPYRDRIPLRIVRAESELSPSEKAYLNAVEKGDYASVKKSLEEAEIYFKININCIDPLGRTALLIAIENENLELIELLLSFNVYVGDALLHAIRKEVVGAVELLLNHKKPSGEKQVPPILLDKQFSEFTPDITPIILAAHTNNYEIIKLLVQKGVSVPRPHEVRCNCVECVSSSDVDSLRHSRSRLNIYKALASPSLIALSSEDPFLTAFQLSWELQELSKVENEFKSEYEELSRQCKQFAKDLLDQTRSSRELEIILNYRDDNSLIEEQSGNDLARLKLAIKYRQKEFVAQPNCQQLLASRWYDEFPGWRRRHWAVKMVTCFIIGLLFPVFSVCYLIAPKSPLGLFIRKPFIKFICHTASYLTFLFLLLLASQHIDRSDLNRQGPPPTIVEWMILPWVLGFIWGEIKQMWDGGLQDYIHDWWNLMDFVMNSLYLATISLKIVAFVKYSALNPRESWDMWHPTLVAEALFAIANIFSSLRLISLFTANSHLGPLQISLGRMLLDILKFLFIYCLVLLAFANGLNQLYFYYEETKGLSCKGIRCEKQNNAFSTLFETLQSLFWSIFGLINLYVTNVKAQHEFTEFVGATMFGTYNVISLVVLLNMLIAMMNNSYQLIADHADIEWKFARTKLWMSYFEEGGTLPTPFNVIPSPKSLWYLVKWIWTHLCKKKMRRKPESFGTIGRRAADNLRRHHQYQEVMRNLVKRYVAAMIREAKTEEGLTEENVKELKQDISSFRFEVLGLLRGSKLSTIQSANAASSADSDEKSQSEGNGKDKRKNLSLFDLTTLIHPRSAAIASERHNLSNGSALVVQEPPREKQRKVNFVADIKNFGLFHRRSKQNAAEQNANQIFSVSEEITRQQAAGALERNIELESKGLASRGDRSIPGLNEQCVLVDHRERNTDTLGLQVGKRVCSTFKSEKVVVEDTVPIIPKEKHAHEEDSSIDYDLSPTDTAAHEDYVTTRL

[9] = loss of viability in HepG2 cells – cell-based, CellTiter-Glo, cherry-picked, cytotoxicity control for Shn3 inhibitor project, dose response (AID 624134); type: functional
[10] = non-specific 3'UTR reporter inhibition in Clone20-Shn3RL – cell-based, Renilla luciferase, cherry-picked, counter-screen for Shn3 inhibitor project, dose response (AID 624133); type: functional
[11] = reduction of Shn3 3'UTR-driven luciferase in osteoblasts – cell-based, Clone20 osteoblasts, firefly luciferase, cherry-picked, dose response (AID 624132); type: functional;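 note: firefly luciferase luminescence from reporter carrying the Shn3 3'UTR in osteoblasts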
[12] = Luminescence Cell-Based Dose Retest to Confirm Inhibitors of Cancer Stem Cells. [Related pubchem assays (depositor defined):AID2717, AID2721]; type: functional; conditions: Homo sapiens
[13] = target: T3, Replicative DNA helicase DnaB (Mycobacterium tuberculosis, UniProt P9WMR3); test: DnaB intein splicing inhibitors, dose response, biochemical, cell-free fluorescence (AID 449749); type: functional
T3 sequence (P9WMR3 whole entry): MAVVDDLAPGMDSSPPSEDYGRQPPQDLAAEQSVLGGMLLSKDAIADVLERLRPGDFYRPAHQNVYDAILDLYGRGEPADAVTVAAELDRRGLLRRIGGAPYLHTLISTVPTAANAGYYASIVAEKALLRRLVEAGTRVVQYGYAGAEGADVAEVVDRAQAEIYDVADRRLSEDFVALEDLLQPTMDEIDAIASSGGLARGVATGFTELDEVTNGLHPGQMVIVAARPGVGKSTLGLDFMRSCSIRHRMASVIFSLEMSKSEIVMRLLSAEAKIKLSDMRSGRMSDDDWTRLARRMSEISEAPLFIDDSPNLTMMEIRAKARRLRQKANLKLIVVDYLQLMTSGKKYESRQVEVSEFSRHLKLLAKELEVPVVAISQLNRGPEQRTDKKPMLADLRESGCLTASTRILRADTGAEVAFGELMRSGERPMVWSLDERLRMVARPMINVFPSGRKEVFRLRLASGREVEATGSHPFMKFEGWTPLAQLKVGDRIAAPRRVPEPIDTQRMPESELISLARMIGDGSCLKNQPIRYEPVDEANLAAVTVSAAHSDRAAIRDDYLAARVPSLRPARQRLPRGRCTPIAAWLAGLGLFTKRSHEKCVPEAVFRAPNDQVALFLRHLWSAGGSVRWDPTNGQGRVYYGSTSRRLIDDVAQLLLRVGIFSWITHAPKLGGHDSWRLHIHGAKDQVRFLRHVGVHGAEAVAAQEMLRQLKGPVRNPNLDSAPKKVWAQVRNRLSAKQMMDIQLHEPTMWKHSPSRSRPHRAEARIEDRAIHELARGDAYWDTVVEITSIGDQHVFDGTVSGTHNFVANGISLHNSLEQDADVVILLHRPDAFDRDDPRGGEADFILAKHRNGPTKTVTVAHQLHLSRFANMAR

[14] = target: T4, Hepatocyte nuclear factor 4-alpha (Homo sapiens, UniProt P41235); type: functional, cell-based;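 note: biochemical luminescence-based dose-response counterscreen measuring inhibition of HNF4 dimerization, run alongside a screen for blockers of ABHD5–perilipin-5 interaction; split luciferase complementation of HNF4 fusion proteins in cell lysate measuring dimerization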
T4 sequence (P41235 whole entry): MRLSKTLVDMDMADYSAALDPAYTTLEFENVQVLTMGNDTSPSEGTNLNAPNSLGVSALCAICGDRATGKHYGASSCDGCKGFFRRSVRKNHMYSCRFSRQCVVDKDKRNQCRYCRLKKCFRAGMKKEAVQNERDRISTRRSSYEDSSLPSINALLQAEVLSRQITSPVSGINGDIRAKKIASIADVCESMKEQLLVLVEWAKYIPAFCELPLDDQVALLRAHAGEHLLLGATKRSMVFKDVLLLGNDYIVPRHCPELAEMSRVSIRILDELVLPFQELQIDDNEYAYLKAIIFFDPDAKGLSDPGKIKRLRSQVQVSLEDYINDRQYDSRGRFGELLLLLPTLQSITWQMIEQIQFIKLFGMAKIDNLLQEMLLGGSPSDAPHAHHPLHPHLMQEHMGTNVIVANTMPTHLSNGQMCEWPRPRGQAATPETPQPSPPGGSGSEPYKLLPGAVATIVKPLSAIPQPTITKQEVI

Protein RecA = target: T5, Protein RecA (Mycobacterium tuberculosis, UniProt P9WHJ3); test: Fluorescence Cell-Free Homogeneous Dose Retest to Identify Inhibitors of RecA-Intein Splicing Activity. [Related pubchem assays (depositor defined):AID2097, AID2223, AID489010, AID492950]; type: functional
T5 sequence (P9WHJ3 whole entry): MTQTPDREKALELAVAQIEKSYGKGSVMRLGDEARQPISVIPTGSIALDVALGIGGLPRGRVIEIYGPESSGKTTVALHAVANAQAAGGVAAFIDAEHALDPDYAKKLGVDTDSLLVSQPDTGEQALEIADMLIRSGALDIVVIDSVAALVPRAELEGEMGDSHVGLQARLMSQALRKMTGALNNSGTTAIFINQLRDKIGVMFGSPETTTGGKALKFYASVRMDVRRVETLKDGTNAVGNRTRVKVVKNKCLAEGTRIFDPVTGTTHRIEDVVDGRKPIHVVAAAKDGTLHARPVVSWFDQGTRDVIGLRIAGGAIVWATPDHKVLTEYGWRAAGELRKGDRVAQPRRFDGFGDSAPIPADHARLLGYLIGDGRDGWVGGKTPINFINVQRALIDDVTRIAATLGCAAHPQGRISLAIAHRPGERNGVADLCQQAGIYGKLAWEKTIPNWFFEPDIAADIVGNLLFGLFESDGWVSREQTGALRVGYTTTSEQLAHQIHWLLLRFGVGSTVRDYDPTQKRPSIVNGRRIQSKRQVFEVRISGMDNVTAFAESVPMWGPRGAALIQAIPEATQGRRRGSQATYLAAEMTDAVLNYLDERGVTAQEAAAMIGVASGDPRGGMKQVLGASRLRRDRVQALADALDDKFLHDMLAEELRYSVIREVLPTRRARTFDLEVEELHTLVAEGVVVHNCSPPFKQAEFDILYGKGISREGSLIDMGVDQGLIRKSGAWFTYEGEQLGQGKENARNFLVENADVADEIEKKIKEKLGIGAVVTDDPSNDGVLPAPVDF

H9c2 = test: cells; type: functional, cell-based; conditions: Rattus norvegicus, H9c2, Myocardium
Melanocortin receptor 4 = Melanocortin receptor 4 (Homo sapiens, UniProt P32245); type: functional, cell-based;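 note: Cell-based assay with luminescence read-out, confirmatory dose-response testing for agonist activity of biased ligands at MC4R; human U2OS cells with tagged receptor and beta-arrestin; potency of agonists that increase receptor coupling to beta-arrestin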
[15] = HEK-293T viability loss after treatment – luminescence, T-cell screen hits, cytotoxicity control for TCR NF-kB inhibitor project, dose response (AID 489026); type: functional, cell-based;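 note: cells exposed to compound about 14 hours before the viability readout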
[16] = target: T6, Low molecular weight phosphotyrosine protein phosphatase (Homo sapiens, UniProt P24666); type: functional; conditions: read-out: IC50_Mean;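 note: Dose-response confirmation assay measuring inhibition of LMPTP enzyme activity by fluorescence intensity read-out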
T6 sequence (P24666 whole entry): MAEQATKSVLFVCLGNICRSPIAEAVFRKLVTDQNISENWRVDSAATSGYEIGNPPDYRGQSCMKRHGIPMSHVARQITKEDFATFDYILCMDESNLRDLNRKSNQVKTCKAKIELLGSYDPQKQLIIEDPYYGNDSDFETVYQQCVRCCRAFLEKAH

Chain of DNA dC->dU-editing enzyme APOBEC-3G (Q9HC16 whole entry): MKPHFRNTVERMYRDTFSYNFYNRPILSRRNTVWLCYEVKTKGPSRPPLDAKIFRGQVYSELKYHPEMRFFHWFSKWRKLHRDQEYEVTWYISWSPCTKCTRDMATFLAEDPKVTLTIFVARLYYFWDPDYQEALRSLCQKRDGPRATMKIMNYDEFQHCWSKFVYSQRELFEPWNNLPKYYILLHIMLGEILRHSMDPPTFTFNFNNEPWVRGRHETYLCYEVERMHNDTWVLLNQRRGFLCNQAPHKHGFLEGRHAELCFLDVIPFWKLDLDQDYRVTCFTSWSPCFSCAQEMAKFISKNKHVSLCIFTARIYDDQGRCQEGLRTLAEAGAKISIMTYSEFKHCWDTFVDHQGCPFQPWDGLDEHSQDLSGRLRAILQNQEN
Chain of DNA dC->dU-editing enzyme APOBEC-3A (P31941 whole entry): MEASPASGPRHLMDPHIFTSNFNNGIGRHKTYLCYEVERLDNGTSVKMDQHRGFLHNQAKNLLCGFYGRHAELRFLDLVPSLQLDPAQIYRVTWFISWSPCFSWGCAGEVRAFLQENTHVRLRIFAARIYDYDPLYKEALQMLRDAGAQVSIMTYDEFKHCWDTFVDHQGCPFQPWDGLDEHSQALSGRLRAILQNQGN
Chain of Ras and Rab interactor 1/Tyrosine-protein kinase ABL1 (P00519 whole entry): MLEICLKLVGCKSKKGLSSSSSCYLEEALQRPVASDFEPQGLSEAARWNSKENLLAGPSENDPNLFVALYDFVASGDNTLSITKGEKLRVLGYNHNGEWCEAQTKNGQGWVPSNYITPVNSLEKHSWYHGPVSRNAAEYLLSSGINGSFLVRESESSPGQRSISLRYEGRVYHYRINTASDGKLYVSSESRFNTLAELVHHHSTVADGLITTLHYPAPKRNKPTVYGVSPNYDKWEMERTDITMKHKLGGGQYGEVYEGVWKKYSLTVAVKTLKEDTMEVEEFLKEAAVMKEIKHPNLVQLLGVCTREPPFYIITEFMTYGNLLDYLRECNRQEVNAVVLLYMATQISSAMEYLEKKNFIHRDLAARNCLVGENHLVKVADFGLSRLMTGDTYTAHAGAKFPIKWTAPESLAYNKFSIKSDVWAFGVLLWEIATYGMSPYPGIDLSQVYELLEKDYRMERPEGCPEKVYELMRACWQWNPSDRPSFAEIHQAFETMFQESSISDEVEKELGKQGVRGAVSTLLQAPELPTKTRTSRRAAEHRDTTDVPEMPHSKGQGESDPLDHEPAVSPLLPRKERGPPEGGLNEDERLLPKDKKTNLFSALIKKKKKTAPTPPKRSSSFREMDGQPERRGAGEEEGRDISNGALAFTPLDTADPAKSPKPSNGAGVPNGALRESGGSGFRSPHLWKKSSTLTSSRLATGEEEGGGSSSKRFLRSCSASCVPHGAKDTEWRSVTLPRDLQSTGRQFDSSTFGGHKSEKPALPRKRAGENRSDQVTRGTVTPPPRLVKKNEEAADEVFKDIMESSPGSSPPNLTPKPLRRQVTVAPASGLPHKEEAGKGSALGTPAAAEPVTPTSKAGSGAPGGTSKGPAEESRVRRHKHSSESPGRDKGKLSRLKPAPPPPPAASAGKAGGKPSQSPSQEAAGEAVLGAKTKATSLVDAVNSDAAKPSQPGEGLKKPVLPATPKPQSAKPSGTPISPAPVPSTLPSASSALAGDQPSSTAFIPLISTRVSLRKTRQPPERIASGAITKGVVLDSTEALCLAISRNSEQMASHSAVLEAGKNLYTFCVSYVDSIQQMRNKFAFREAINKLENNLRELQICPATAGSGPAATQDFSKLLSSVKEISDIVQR
Chain of Ras and Rab interactor 1/Tyrosine-protein kinase ABL1 (Q13671 whole entry): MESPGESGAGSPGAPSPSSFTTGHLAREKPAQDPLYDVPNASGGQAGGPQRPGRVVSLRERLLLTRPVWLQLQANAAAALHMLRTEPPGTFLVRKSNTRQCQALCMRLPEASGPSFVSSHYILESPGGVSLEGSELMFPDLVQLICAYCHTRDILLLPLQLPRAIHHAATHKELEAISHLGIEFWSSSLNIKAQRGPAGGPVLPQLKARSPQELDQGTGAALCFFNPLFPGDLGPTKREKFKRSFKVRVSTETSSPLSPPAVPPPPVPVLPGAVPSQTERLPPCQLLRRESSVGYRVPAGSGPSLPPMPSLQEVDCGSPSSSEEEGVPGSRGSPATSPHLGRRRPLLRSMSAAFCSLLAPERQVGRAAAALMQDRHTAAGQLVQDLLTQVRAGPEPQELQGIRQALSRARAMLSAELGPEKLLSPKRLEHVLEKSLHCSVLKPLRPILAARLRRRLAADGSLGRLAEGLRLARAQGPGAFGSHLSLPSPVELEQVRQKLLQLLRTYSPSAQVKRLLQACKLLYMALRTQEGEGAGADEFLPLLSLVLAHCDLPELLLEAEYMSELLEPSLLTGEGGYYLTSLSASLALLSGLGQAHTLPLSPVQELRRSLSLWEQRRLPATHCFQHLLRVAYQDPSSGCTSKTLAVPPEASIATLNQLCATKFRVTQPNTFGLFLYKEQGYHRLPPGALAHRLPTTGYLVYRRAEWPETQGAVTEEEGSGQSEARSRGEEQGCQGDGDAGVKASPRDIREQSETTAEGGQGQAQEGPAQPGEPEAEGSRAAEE
Chain of Melanocortin receptor 4 (P32245 whole entry): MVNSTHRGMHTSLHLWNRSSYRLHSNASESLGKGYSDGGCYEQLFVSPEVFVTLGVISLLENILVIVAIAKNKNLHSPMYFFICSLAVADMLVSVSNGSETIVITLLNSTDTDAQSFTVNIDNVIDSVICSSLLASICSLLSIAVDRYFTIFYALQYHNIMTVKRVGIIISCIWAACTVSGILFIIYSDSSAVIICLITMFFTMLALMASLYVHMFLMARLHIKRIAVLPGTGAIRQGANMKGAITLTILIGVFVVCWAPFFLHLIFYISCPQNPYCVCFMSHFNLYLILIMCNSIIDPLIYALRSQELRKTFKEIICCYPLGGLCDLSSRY

## C=CCn1c2ccccc2c2nnc(SCc3[nH]c(=O)[nH]c3C(=O)CCCCC(=O)OCC)nc21
[1]
  IC50: 2.19 µM (active)

## Brc1cccc(/C=N/Nc2nn[nH]n2)c1
Coagulation factor XII
  IC50: > 50 µM (inactive)

## COc1ccc(/C=N/NC(=O)C(C)Sc2ccccn2)cc1[N+](=O)[O-] (stereo unspecified)
[2]
  IC50: 6.02 µM (active)
[3]
  IC50: 7.71 µM (active)

## Cc1cccc(N(Cc2ccccc2)C(=O)Cc2ccc(S(=O)(=O)N3CCOCC3)s2)c1
[4]
  CC50: 22 µM (active)
[1]
  IC50: 18.6 µM (inactive)

## COCCN(C(=O)COC(=O)CNC(=O)c1cccs1)c1c(N)n(Cc2ccccc2)c(=O)[nH]c1=O
[2]
  IC50: 8.35 µM (active)
[3]
  IC50: 10.8 µM (active)

## O=C(N/N=C/c1ccccn1)c1ccccc1
cells
  IC50: > 50 µM (active)
[5]
  CC50: > 20 µM (active)

## COc1ccc(CCNCc2ccc(SC)cc2)cc1
[6]
  EC50: > 60 µM (not active)
[7]
  EC50: 0.225 µM (active)
[8]
  EC50: 5.31 µM (active)

## Cc1ccc2nc(-c3cccc(SC4CCCCC4)c3)c(NCc3ccccc3)n2c1
[9]
  AC50: > 70 µM (inactive)
[10]
  AC50: 5.3 µM (active)
[11]
  AC50: 3.53 µM (active)

## CCN1CCN(S(=O)(=O)c2ccc(Cl)c(C(=O)Nc3cc(Cl)ccc3N3CCOCC3)c2)CC1
[2]
  IC50: 5.15 µM (active)
[3]
  IC50: 5.78 µM (active)

## Cc1cc(C)c(C(CC(=O)c2cccs2)C(C#N)C#N)c(C)c1 (stereo unspecified)
[12]
  AC50: 5.08 µM (active)
[13]
  AC50: 3.42 µM (active)
[14]
  IC50: 8.02 µM (active)
Protein RecA
  EC50: 2.31 µM (active)

## CCCCCNC(=O)C(c1ccccc1F)n1c(=O)c(-c2ccco2)nc2ccccc21 (stereo unspecified)
[14]
  IC50: 0.97 µM (active)

## CCCCN(CC)CCNC(=O)Cn1cc2c(n1)-c1c(oc(C(=O)N3CCCC3)c1C)CC2
[8]
  EC50: 0.267 µM (active)

## CC(=O)c1cccc(-c2cnc3c(NC=O)cc(-c4ccccc4F)cn23)c1
H9c2
  IC50: > 79 µM (inactive)
Melanocortin receptor 4
  EC50: > 89.2 µM (inactive)

## CC(=O)Nc1ccc(NC(=O)CCn2c(=S)oc3ccccc32)cc1
Coagulation factor XII
  IC50: > 50 µM (inactive)

## CCOC(=O)c1[nH]c(C)c(C(=O)Nc2cc(Cl)ccc2C)c1C
[15]
  IC50: > 80 µM (inactive)

## CCn1cc(C(=O)O)c(=O)c2cc(F)c(N3CCN(C(=S)NC(=O)c4ccccc4Br)CC3)cc21
[16]
  IC50: 4.66 µM (active)

## O=C(NCc1ccccc1)C(c1ccc(C(F)(F)F)cc1)n1c(=O)c(-c2ccco2)nc2ccccc21 (stereo unspecified)
[14]
  IC50: 2.02 µM (active)

## Cc1sc2ncnc(NCC(c3ccco3)N3CCCC3)c2c1C (stereo unspecified)
[8]
  EC50: 0.0173 µM (active)
